In this assay the test system is Chronic Pain. The settings on record: human, in vivo, po.

Turning to `COc1ccc2c3c1O[C@H]1C(=O)CC[C@@]4(O)[C@@H](C2)N(C)CC[C@]314` [Oxycodone], the Pain level was 3 /10.

These data come from patent US11433081B2 (priority 2018, dated 2022).
